Reference: US7067254B2, “Diagnosis and treatment of inflammation and hyperactive immune conditions” (Board of Regents, The University of Texas System, priority 2001, dated 2006)

Tests used:
[1] = Local apyrase injection in croton oil-induced ear swelling; assay type: in vivo, mouse
Source text: (§1) FIGS. 4A, 4B, 4C, 4D, 4E, 4F, 4G, & 4H. Irritant contact hypersensitivity responses in CD39-deficient mice. CD39^−/− mice (circles), CD39^+/− mice (triangles) or CD39^+/+ mice (squares) received topical application of 1% croton oil (FIG. 4A), 10% BAC (FIG. 4B), or 30% EPP (FIG. 4C) on the right ear and vehicle alone on the left ear. […] Statistical significant differences compared to the CD39^+/+ mice or to the CD39^+/− mice are indicated by asterisks or sharps, respectively (*^/# p<0.05 and **^/## p<0.01; two-tailed Student's t test). FIG. 4D, Ear skin samples were harvested from CD39^+/+ or CD39^−/− mice 5 days after topical application of vehicle alone or 1% CO and processed to histological analyses after H&E staining (original magnification: ×250). FIG. 4E, CD39^−/− mice (n=6) or C57BL/6 wild-type mice (n=10) (FIG. 4F) received local injections of apyrase on the right ear (closed circles) or PBS alone on the left ear (open circles) before and after topical application of 1% CO on both ears. The data shown are the mean±SEM of the swelling responses (the ear thickness after CO application minus the baseline thickness before application) at the indicated time points. Statistical significant differences (one-tailed Student's t-test) are indicated by asterisks (*p<0.05 and **p<0.01). […]

[2] = system: endothelial cells; details: soluble apyrase added in the medium; Imai et al., 2000; cited from earlier work
[3] = system: bone marrow-derived DC; assay: ATP-induced IL-6 secretion by bone marrow-derived DC (ELISA); assay type: cell-based, mouse
Source text: (§2) FIGS. 6A, 6B, & 6C. P2Y receptor desensitization in CD39^−/− DC. […] (FIG. 6C), CD39^−/− or CD39^+/+ DC were pre-treated with apyrase or buffer alone and then examined for ATP-mediated activation responses. Data shown are the means±s.d. (n=3) of cell viability (left), IL-6 production (middle), and LY uptake (right). Statistically, significant differences are indicated by asterisks (** P<0.01).
(§3) Measurement of ATP responsiveness.

[4] = system: cytotoxic T-cells; details: cited from earlier work
[5] = system: bone marrow-derived DC; assay: ATP-mediated cytolysis of bone marrow-derived DC (cell viability, 7-AAD staining); assay type: cell-based, mouse
Source text: as §2, §3

[6] = system: Pam 212 keratinocytes; assay: ATP and ADP release from Pam 212 keratinocytes after skin irritant chemicals (luciferin-luciferase, pyruvate kinase); assay type: cell-based, mouse; details: for ATP and ADP levels in culture supernatants: Pam 212 keratinocytes, 10 min incubation; for ATP release from Pam 212 keratinocytes: in vitro treatment, ATP in culture supernatants
Method: (§4) FIGS. 3A, 3B, & 3C. […] (FIG. 3A), Pam 212 keratinocytes were treated with croton oil (CO), benzalkonium chloride (BAC), or ethyl phenylpropiolate (EPP) at the indicated concentrations or exposed to UVB irradiation at the indicated doses. […] (FIG. 3C), Pam 212 keratinocytes and XS52 LC were co-cultured at the indicated cell densities and treated for 10 min with PBS alone or with 0.0015% BAC. All data shown in this figure are representative sets of results (mean±SD, n=3) from three independent experiments. * p<0.05; ** p<0.01 (two-tailed Student's t-test).
As the amount of ATP is directly proportional to the light emitted, quantification of the emitted light provides a measure of the amount of ATP. […] Cellular ATP release is then measured by: obtaining cells growing in culture; replacing the culture medium with a buffer; adding the ATP releasing agent (chemical irritant or a modulator of an NTPDase-mediated immune response); obtaining a sample of the buffer surrounding the cells after allowing sufficient time for ATP release by the cell in response to the irritant or modulator of an NTPDase-mediated immune response; adding luciferin and luciferase to this buffer; and quantitating the light released using a luminometer. A negative control can comprise obtaining the same reading with no cells; and/or obtaining the same reading with no added ATP releasing agent. The data are then analyzed by comparing to the standard ATP curve. Generally the cells in such assays may be grown in a multi-well format.
Additionally, the release of ADP into culture media can be measured by the pyruvate kinase-mediated conversion to ATP. This enzymatic assay utilizes pyruvate kinase (PK) which catalyzes the following reaction: Phospho(enol)pyruvate+ADP→Pyruvate+ATP
(§5) ATP and ADP released by endothelial cells and platelets are known to act as pro-inflammatory mediators in the vascular system.

[7] = system: Pam 212 keratinocytes; assay: LDH release from Pam 212 keratinocytes (CytoTox 96 assay kit); assay type: cell-based, mouse
Method: as §4, §5

[8] = mouse, in vivo
Source text: as §1

[9] = system: IA+ epidermal cells; assay: LC emigration: surface densities of IA+ epidermal cells after local injection of TNFα; assay type: in vivo, mouse; details: CD39+/+ mice; local injection 100 ng/animal, 48 hr
Source text: FIGS. 5A, 5B, 5C, 5D, 5E, 5F, 5G, & 5H. Attenuated immune responses in CD39-deficient mice. […] The data shown are the means±s.e.m. (n=10) of the swelling responses. […] (FIG. 5C) Mice received local injection of TNFα and examined for surface densities of IA^+ epidermal cells (means±s.d., n=3). At 24 hr after topical application of FITC, the DLN were examined for the numbers of migratory LC (means±s.d., n=3) (FIG. 5D) localization of FITC^+ migratory LC after counter-staining of the B cell areas with PE-conjugated B220 mAb (FIG. 5E), and for the surface phenotype of FITC^+ migratory LC (FIG. 5F). Closed and open histograms represent the staining profiles with the indicated mAb and control IgG, respectively. Numbers in the parentheses indicate the mean fluorescence intensities (MFI). (FIG. 5G), Migratory LC isolated from OX-painted CD39^−/− mice (circles) or CD39^+/+ mice (squares) were co-cultured with OX-reactive, wild-type T-cells. The data shown are the means±s.d. (n=3) of interferon-γ (IFN-γ) concentrations in the culture supernatants (* P<0.05). (FIG. 5H), Bone marrow-derived DC generated from CD39^−/− mice (circles) or CD39^+/+ mice (squares) were pulsed with TNBS and injected into CD39^+/+ mice. […]
Measurement of DC function. […] Maturational states of migratory LC were assessed by the surface expression of CD86 and CD40 by the FITC^+ populations in DLN. […]

[10] = Inflammatory skin responses to locally administered ATP; assay type: in vivo, mouse
[11] = system: bone marrow-derived DC; assay: ATP-induced pore formation in bone marrow-derived DC (lucifer yellow uptake); assay type: cell-based, mouse; details: 3 mM ATP, 15 min
Source text: as §2, §3

## apyrase
[1]; 0.2U/ear s.c. into ear 10 min before and 1 hr after 1% CO painting
  effect on early phase ear swelling responses to CO in CD39−/− mice: diminished the extent of early phase responses
[1]; 0.2U/ear s.c. into ear before and 1 hr after 1% CO painting
  effect on CO-induced skin inflammation in wild-type C57BL/6 mice: further reduced the extent of CO-induced skin inflammation
[2]
  inhibition of LPS-induced IL-1 secretion: can be inhibited
[3]; apyrase 5 U/ml, 10 min before 1 mM ATP
  effect of apyrase pre-treatment on capacity of CD39−/− DC to secrete IL-6 upon ATP stimulation: restored
[4]
  effect on cytolytic capacity of cytotoxic T-cells: inhibited partially
[5]; apyrase 5 U/ml, 10 min before 2.5 mM ATP
  effect of apyrase pre-treatment on susceptibility of CD39−/− DC to ATP-mediated cytolysis: restored their susceptibility to ATP-mediated cytolysis

## CCOC(=O)C#Cc1ccccc1 [ethyl phenylpropiolate]
[6]
  ATP and ADP levels in culture supernatants: detected at comparable levels
  ATP release from Pam 212 keratinocytes: triggered rapid ATP release in a time- and dose-dependent manner
[7]
  release of lactate dehydrogenase (LDH): caused rapid release of lactate dehydrogenase (LDH)
[8]
  ear swelling responses in CD39−/− mice compared with CD39+/+ mice: amplified significantly

## TNFα
[9]
  reduction in surface densities of IA+ epidermal cells: about 50%

## Nc1ncnc2c1ncn2[C@@H]1O[C@H](COP(=O)(O)OP(=O)(O)OP(=O)(O)O)[C@@H](O)[C@H]1O [ATP, adenosine triphosphate]
[10]
  inflammatory skin responses in CD39−/− mice: markedly elevated inflammatory skin responses
[3]; CD39+/+ vs CD39−/− DC, 1 mM ATP, 16 hr
  IL-6 secretion in response to ATP: CD39^+/+ DC, but not CD39^−/− DC, secreted IL-6
[11]
  ATP-induced pore formation (lucifer yellow uptake) in CD39−/− DC: intact nucleotide responsiveness
[5]; CD39+/+ DC, 60 min incubation
  ATP concentration that killed DC significantly: 2.5 mM
[5]; CD39−/− DC, 60 min incubation
  ATP concentration up to which DC were resistant to cytolysis: up to 10 mM

## benzalkonium chloride
[6]
  ATP and ADP levels in culture supernatants: detected at comparable levels
  ATP release from Pam 212 keratinocytes: triggered rapid ATP release in a time- and dose-dependent manner
[7]
  release of lactate dehydrogenase (LDH): caused rapid release of lactate dehydrogenase (LDH)
[8]
  ear swelling responses in CD39−/− mice compared with CD39+/+ mice: amplified significantly
